This note sets out measurements from patent publication US20060069132A1, “Azolecarboxamide herbicides” (priority 2004, published 2006).

Each structure is given as a SMILES string.

The subject of one assay is barnyardgrass. Briefly: Test A pre-/postemergence herbicide test. The assay is classed as in vivo, Echinochloa crus-galli. A digest of the protocol: (§1)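 Seeds sown in sandy loam received a preemergence directed soil spray of compound in non-phytotoxic solvent with surfactant; postemergence plants (2–10 cm, one- to two-leaf stage) were sprayed to runoff at the same time. After ~10 days in greenhouse, injury was rated visually versus untreated controls (0 = no effect, 100 = complete control).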

The next assay has as its system redroot pigweed. Briefly: Test A pre-/postemergence herbicide test. The format is in vivo, Amaranthus retroflexus. A digest of the protocol: as §1
Another assay has as its system rice. Briefly: Test B pre-/postemergence herbicide test. The assay is classed as in vivo, Oryza sativa. Particulars: 0 = no effect, 100 = complete control, preemergence. A digest of the protocol:
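Visual rating, 0 (no effect) to 100 (complete control), versus untreated controls after 13–15 d in greenhouse. Pre- and postemergence applications (postemergence plants 2–18 cm, 1–4 leaves); flooded paddy arm at 2-leaf stage. Compounds in non-phytotoxic solvent plus surfactant.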

The subject of a further assay is cocklebur. Briefly: Test C pre-/postemergence herbicide test. The format is in vivo, Xanthium strumarium. The following applies: preemergence. Summed up:
(§2)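 Seeds were planted and sprayed preemergence with test chemicals in a non-phytotoxic solvent mixture containing surfactant; postemergence treatments went onto plants 2 to 18 cm tall (1- to 4-leaf stage). After 12 to 14 days in a greenhouse, injury was rated visually against untreated controls on a 0–100 scale.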

The next assay concerns corn. Briefly: Test C pre-/postemergence herbicide test. The format is in vivo, Zea mays. Particulars: preemergence. Summed up:
as §2

The next assay deals with johnsongrass. Briefly: Test C pre-/postemergence herbicide test. The format is in vivo, Sorghum halepense. The following applies: preemergence. Summed up: as §2
Another assay has as its system pigweed. The assay can be described thus: Test C pre-/postemergence herbicide test. The format is in vivo, Amaranthus retroflexus. Particulars: preemergence. A digest of the protocol:
as §2

A further assay deals with velvetleaf. Briefly: Test C pre-/postemergence herbicide test. The format is in vivo, Abutilon theophrasti. The following applies: preemergence. Summed up:
as §2

The mark [1] stands for this setting: Postemergence, 500 g ai/ha, 0 to 100 scale, 0 no effect, 100 complete control.
Where [2] appears, read: Postemergence, 2000 g ai/ha, 0 to 100 scale, 0 no effect, 100 complete control.
[3] abbreviates: Preemergence, 2000 g ai/ha, visual rating, 0 to 100 scale (0 no effect, 100 complete control).
Where [4] appears, read: preemergence, 500 g ai/ha, visual injury, 0 to 100 scale (0 no effect, 100 complete control).
The mark [5] stands for this setting: 125 g ai/ha, scale 0 (no effect) to 100 (complete control), visual, 12 to 14 days.

Turning to `CCNC(=O)c1ccc(F)c(NC(=O)c2cc(C3(C)CC3)nn2CC)c1` [Compound 300], the results for the “Barnyardgrass plant response rating” value in the assay with barnyardgrass (setting [1]), with barnyardgrass (setting [3]) and with barnyardgrass (setting [4]) were 75, 100 and 90, respectively. Also, the “Plant response rating, Barnyardgrass” value in the assay on barnyardgrass (setting [2]) was found to be 90. In addition, the figures for the “Pigweed plant response rating” value with redroot pigweed (setting [1]), in the assay on redroot pigweed (setting [3]) and in the assay on redroot pigweed (setting [4]) were 90, 100 and 95, respectively. The “Plant response rating, Pigweed” value in the assay with redroot pigweed (setting [2]) was determined as 100; in the assay on pigweed (62 g ai/ha, scale 0 to 100) it was 100; in the assay on pigweed (setting [5]) it was 100; with pigweed (250 g ai/ha, scale 0-100), 100. Also, the “Rice plant response rating (0 to 100 scale)” value in the assay with rice (125 g ai/ha) amounted to 40. Moreover, the “Plant response rating, Rice” value with rice (500 g ai/ha, visual rating) worked out at 70. For the same compound, the “Plant response rating, Cocklebur” value came to 5 in the assay on cocklebur (62 g ai/ha, scale 0 to 100); 5 in the assay on cocklebur (setting [5]); 5 in the assay with cocklebur (250 g ai/ha, scale 0-100). The “Plant response rating, Corn” value in the assay with corn (62 g ai/ha, scale 0 to 100) was 30; with corn (setting [5]), 30; with corn (250 g ai/ha, scale 0-100) it was 35. For the same compound, the “Plant response rating, Johnsongrass” value was 60 in the assay with johnsongrass (62 g ai/ha, scale 0 to 100); 85 in the assay with johnsongrass (setting [5]); 95 in the assay with johnsongrass (250 g ai/ha, scale 0-100). Moreover, the “Plant response rating, Velvetleaf” value in the assay with velvetleaf (62 g ai/ha, scale 0 to 100) is 5; with velvetleaf (250 g ai/ha, scale 0-100) it was 5.
